Test system: GIRK currents
Test: patch-clamp controls: inhibition of the activated GIRK currents
Format: cell-based, human
Method: HEK 293 cells expressing HKIR3.1/3.2 channel and human somatostatin receptor 2 were treated with these compounds, and whole cell patch-clamp current recordings taken. […] Cell Culture
Whole cell patch-clamp current recordings were performed with an Axopatch 200B amplifier (Axon Instruments) using fire-polished pipettes with a resistance of 3-4 MS pulled from filamented borosilicated glass capillaries (Harvard Apparatus, 1.5 mm OD×1.17 mm ID). Data was acquired and analysed via a Digidata 1322A interface (Axon Instruments) and pCLAMP software (version 8.1, Axon Instruments). A fast perfusion system was used to apply somatostatin and analogues (Rapid Solution Changer, RSC-160, Bio-Logic France). Cells were clamped at −60 mV. The extracellular solution was (mM): NaCl 80, KCl 60, CaCl2 2, MgCl2 1, HEPES 10, NaH2PO4 0.33, glucose 10, pH 7.4; while the intracellular solution was (mM): K gluconate 110, KCl 20, NaCl 10, MgCl2 1, MgATP 2, EGTA 2 GTP 0.3, pH 7.4. After agonist application, current activated with a delay “lag” followed by a rapid rise to peak amplitude “time to peak”. After removal of the agonist, the current decays back to baseline. For each cell it was assessed if flow artifacts resulting from the pressure of drug application were present. This was done by applying bath solution from one of the sewer pipes at the beginning of the recordings. […]

Substance | GIRK currents after treatment of cells with Pertussis toxin (control) (pertussis toxin 100 ng/ml, cells incubated overnight) | GIRK currents after GIRK inhibitor Tertiapin Q (control) (Tertiapin 100 nM)
Pertussis toxin | currents were largely inhibited | 
Tertiapin Q |  | currents were largely inhibited
